Experimental data: paper PMC12136037, “Type II kinase inhibitors that target Parkinson’s disease–associated LRRK2” (Science Advances, 2025)

How the values were obtained:
Assay in all cases: DSF 100 kinase selectivity screen;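 also: compound tested at 20 µM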
Format in all cases: binding
[1] = target: T1, ~100 representative kinases (Homo sapiens, UniProt O14965); conditions: Protein STK6; DSF; average of three replicates
T1 construct: Recombinant protein kinase domains with a concentration of 2 μM
T1 sequence (O14965 1-403): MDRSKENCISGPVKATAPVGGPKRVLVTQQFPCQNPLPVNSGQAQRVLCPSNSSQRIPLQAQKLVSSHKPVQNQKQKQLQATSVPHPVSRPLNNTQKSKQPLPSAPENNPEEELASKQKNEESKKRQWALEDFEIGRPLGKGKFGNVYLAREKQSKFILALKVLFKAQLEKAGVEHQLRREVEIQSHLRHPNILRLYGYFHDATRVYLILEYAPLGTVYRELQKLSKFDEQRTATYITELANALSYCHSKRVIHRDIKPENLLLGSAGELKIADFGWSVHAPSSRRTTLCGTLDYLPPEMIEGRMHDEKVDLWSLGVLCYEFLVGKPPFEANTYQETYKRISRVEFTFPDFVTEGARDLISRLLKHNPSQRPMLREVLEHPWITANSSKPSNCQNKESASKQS
Summary of the method: (§1)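 Each kinase domain, at 2 μM, is mixed with 20 μM test compound and SYPRO Orange in Hepes (20 mM, pH 7.5) with 500 mM NaCl. Temperature is then raised at 3°C/min and fluorescence-monitored unfolding yields the melting temperature change, ΔTm in degrees Celsius.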

[2] = target: T2, ~100 representative kinases (Homo sapiens, UniProt O95747); conditions: protein OSR1; average of three replicates
T2 construct: Recombinant protein kinase domains with a concentration of 2 μM
Summary of the method: as §1

[3] = target: T3, ~100 representative kinases (Homo sapiens, UniProt P21675); conditions: Protein TAF1; DSF; average of three replicates
T3 construct: Recombinant protein kinase domains with a concentration of 2 μM
Summary of the method: as §1

[4] = target: T4, ~100 representative kinases (Homo sapiens, UniProt P22830); conditions: protein FECH; average of three replicates
T4 construct: Recombinant protein kinase domains with a concentration of 2 μM
T4 sequence (P22830 55-423): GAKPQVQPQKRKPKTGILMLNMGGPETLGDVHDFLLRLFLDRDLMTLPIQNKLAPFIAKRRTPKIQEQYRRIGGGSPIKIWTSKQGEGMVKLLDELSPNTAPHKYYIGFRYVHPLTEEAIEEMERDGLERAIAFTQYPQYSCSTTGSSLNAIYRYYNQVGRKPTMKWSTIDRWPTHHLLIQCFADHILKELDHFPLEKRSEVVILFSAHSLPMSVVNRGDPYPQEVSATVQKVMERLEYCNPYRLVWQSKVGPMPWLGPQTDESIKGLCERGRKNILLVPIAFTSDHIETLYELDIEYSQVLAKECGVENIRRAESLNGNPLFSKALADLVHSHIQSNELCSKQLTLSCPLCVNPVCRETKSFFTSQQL
Summary of the method: as §1

[5] = target: T5, ~100 representative kinases (Homo sapiens, UniProt P45984); conditions: protein MAPK9; average of three replicates
T5 construct: Recombinant protein kinase domains with a concentration of 2 μM
Summary of the method: as §1

[6] = target: T6, ~100 representative kinases (Homo sapiens, UniProt P51955); conditions: protein NEK2; average of three replicates
T6 construct: Recombinant protein kinase domains with a concentration of 2 μM
T6 sequence (P51955 1-445): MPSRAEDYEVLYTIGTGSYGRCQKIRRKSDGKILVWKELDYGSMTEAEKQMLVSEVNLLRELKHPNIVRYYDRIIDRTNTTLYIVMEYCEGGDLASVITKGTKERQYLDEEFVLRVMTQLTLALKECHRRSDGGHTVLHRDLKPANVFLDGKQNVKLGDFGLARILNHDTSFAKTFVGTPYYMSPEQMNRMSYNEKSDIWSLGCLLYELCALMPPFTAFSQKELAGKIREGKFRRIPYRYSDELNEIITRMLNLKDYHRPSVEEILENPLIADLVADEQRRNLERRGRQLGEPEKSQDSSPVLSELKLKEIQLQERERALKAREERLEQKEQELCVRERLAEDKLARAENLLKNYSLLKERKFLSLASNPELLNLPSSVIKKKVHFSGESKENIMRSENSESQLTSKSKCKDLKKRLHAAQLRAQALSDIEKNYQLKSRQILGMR
Summary of the method: as §1

[7] = target: T7, ~100 representative kinases (Homo sapiens, UniProt P68400); conditions: Protein CK2A1; average of three replicates
T7 construct: Recombinant protein kinase domains with a concentration of 2 μM
Summary of the method: as §1

[8] = target: T8, ~100 representative kinases (Homo sapiens, UniProt Q13153); conditions: protein PAK1; average of three replicates
T8 construct: Recombinant protein kinase domains with a concentration of 2 μM
Summary of the method: as §1

[9] = target: T9, ~100 representative kinases (Homo sapiens, UniProt Q14680); conditions: protein MELK; average of three replicates
T9 construct: Recombinant protein kinase domains with a concentration of 2 μM
Summary of the method: as §1

[10] = target: T10, ~100 representative kinases (Homo sapiens, UniProt Q15418); conditions: Protein RPS6KA1; DSF; average of three replicates
T10 construct: Recombinant protein kinase domains with a concentration of 2 μM
Summary of the method: as §1

[11] = target: T11, ~100 representative kinases (Homo sapiens, UniProt Q9UKI8); conditions: Protein TLK1; DSF; average of three replicates
T11 construct: Recombinant protein kinase domains with a concentration of 2 μM
T11 sequence (Q9UKI8 1-766): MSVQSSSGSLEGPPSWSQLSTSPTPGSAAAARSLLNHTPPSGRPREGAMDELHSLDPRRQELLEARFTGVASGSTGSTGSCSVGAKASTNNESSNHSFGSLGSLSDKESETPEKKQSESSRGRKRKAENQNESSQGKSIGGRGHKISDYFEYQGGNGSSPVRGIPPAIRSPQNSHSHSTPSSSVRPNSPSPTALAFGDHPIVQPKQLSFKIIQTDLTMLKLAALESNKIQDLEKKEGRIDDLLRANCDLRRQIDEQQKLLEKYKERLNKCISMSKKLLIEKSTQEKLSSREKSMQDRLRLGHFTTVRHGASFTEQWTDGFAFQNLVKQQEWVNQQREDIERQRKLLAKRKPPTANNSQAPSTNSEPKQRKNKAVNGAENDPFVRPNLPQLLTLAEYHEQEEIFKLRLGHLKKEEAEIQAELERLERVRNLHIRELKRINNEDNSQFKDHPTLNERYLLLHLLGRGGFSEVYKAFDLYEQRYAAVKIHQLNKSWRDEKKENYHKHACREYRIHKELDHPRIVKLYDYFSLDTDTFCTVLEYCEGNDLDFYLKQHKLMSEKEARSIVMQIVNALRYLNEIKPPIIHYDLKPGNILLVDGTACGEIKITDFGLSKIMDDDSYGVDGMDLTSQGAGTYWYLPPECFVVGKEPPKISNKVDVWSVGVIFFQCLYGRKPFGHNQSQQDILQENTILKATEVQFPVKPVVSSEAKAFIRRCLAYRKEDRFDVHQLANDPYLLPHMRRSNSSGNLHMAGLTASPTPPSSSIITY
Summary of the method: as §1

T2 sequence (O95747 whole entry, the tested form may be a part): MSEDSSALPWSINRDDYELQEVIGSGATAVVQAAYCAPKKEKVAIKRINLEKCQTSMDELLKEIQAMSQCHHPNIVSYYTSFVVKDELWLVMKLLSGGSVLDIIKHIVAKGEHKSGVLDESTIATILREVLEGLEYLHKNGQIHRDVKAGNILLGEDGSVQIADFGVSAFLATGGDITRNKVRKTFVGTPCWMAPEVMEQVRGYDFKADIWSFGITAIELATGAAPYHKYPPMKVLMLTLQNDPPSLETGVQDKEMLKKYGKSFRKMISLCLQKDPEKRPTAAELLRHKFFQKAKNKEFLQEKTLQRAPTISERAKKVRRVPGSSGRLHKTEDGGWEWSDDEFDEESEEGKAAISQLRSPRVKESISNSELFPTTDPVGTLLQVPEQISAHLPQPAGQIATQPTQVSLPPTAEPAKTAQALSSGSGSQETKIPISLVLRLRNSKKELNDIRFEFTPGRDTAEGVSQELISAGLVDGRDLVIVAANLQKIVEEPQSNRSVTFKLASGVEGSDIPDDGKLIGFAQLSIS
T3 sequence (P21675 whole entry, the tested form may be a part): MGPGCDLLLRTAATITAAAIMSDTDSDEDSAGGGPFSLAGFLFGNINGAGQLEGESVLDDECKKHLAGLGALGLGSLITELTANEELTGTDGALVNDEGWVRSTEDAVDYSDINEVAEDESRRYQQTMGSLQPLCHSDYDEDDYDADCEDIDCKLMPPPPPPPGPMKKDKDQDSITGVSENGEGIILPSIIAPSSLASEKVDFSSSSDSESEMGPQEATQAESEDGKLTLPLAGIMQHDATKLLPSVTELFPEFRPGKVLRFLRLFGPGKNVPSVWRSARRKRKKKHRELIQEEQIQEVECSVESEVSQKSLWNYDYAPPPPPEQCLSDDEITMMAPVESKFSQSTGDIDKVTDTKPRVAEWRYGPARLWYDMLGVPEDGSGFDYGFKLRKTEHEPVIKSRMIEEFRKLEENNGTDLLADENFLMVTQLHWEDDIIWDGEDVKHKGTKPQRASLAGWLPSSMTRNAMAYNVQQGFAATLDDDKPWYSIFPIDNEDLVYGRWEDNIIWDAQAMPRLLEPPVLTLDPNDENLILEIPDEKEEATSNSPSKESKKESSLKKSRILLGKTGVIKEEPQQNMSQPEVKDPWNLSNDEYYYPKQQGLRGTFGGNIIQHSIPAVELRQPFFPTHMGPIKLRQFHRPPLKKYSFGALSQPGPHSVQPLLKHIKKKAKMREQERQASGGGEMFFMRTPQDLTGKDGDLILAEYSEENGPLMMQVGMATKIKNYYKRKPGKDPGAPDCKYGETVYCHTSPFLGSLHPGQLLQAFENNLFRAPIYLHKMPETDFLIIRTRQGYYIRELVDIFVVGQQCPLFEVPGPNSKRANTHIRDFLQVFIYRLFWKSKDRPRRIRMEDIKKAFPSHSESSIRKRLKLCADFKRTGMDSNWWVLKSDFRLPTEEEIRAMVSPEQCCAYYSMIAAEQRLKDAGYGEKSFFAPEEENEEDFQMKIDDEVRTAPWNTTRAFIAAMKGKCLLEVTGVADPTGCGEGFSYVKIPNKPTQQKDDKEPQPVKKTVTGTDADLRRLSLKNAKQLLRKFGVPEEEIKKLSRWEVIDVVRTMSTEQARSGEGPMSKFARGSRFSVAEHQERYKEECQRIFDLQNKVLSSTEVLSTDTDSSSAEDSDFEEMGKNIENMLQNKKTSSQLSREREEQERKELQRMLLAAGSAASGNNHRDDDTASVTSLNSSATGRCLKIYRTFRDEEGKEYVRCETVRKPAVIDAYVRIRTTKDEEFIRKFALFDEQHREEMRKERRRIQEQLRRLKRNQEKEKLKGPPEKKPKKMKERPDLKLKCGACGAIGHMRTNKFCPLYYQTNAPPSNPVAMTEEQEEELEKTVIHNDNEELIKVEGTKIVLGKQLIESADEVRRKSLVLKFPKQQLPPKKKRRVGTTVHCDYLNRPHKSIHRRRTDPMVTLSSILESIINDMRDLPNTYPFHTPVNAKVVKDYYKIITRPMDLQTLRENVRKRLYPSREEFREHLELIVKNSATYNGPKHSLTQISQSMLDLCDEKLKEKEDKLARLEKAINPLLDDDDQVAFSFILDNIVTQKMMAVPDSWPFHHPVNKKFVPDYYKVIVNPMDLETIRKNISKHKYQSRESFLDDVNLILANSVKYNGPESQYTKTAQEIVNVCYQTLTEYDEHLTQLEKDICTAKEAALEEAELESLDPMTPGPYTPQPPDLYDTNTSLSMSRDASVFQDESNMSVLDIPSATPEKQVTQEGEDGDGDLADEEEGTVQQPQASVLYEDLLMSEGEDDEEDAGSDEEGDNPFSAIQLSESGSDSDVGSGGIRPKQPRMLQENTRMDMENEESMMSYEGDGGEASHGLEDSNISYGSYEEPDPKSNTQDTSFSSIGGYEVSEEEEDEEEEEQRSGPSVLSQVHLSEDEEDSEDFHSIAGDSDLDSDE
T9 sequence (Q14680 whole entry, the tested form may be a part): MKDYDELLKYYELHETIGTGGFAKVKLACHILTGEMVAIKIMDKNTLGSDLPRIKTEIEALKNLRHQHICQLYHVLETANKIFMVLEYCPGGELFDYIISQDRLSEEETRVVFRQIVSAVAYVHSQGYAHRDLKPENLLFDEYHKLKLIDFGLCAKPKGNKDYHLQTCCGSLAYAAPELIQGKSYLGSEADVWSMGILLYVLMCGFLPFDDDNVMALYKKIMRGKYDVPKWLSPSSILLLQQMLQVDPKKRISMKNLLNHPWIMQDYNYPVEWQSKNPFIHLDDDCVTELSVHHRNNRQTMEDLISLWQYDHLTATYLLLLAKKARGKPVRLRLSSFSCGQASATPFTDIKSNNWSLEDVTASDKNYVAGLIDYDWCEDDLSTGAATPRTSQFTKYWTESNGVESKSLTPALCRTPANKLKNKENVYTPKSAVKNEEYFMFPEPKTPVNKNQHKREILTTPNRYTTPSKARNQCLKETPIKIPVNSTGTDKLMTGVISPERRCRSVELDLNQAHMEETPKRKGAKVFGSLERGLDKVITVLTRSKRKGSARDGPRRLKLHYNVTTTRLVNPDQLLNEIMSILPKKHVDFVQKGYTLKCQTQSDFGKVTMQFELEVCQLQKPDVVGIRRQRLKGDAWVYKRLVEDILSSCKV
T10 sequence (Q15418 whole entry, the tested form may be a part): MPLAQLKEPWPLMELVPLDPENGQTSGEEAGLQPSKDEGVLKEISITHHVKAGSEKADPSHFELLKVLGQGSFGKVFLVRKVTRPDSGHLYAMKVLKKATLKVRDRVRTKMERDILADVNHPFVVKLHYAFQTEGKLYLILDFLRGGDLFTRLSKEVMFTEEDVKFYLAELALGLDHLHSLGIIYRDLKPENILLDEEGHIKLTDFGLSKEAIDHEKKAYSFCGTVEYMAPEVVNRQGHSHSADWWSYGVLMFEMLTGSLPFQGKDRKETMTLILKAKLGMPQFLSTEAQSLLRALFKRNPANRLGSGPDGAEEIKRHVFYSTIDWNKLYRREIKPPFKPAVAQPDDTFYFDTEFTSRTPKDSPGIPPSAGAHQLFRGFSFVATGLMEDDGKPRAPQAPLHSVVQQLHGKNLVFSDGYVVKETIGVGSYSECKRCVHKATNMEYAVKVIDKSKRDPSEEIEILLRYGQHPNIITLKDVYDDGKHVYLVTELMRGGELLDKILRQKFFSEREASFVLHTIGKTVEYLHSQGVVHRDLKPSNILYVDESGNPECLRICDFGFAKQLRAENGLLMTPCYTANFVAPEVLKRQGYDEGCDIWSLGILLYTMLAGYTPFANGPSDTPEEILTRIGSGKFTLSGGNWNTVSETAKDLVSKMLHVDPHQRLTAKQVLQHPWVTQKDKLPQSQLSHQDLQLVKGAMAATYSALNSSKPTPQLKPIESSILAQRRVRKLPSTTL
T8 sequence (Q13153 whole entry, the tested form may be a part): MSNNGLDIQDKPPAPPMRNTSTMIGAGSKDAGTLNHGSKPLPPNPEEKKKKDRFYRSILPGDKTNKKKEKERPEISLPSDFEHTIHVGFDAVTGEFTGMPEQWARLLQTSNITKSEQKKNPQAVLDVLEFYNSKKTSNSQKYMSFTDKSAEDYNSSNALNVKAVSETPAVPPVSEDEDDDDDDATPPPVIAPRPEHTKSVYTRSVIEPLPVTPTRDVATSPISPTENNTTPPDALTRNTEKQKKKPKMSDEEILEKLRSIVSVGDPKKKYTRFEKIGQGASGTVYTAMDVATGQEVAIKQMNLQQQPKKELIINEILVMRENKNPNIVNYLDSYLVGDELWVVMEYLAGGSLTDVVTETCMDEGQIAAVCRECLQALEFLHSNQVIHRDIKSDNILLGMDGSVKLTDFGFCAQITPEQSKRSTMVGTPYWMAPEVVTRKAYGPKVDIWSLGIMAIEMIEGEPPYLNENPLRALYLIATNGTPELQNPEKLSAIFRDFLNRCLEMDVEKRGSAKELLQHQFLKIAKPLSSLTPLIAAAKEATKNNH
T5 sequence (P45984 whole entry, the tested form may be a part): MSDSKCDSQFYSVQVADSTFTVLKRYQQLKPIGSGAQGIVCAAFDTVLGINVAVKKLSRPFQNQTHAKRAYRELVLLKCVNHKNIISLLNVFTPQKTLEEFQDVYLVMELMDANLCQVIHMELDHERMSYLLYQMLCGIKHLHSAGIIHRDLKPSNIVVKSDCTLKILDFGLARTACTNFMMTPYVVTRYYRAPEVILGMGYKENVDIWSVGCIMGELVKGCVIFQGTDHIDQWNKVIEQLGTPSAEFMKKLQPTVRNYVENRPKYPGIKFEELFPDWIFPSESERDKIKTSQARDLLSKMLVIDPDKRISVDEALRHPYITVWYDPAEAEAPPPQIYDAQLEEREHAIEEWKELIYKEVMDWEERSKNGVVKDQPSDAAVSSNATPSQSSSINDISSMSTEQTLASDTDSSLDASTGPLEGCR

O=C(Nc1cccc(-c2c[nH]c3ncnc(N4CCOCC4)c23)c1)C1(C(=O)Nc2ccc(F)c(Br)c2F)CC1 [Compound 26]
dTm [1]: 3.83 K
dTm [2]: -0.0329 K
dTm [3]: -1.20 K
dTm [4]: 0.09 K
dTm [5]: 4.90 K
dTm [6]: -4.02 K
dTm [7]: -1.70 K
dTm [8]: 2.69 K
dTm [9]: 13.99 K
dTm [10]: 0.78 K
dTm [11]: 1.63 K

O=C(Nc1cc(F)cc(Br)c1)C1(C(=O)Nc2cccc(-c3c[nH]c4ncnc(N5CCOCC5)c34)c2)CC1 [Compound 27]
dTm [1]: 4.77 K
dTm [2]: 0.75 K
dTm [3]: -2.32 K
dTm [4]: -2.87 K
dTm [5]: 4.80 K
dTm [6]: -2.11 K
dTm [7]: -1.92 K
dTm [8]: 3.33 K
dTm [9]: 12.52 K
dTm [10]: 0.00 K
dTm [11]: 1.59 K

CC(C)(C)c1cc(NC(=O)Nc2cccc(-c3c[nH]c4ncnc(N5CCOCC5)c34)c2)n(-c2ccc3ncccc3c2)n1 [Compound 28]
dTm [1]: 4.51 K
dTm [2]: 4.85 K
dTm [3]: 1.17 K
dTm [4]: 1.86 K
dTm [5]: 6.00 K
dTm [6]: 2.21 K
dTm [7]: 0.00 K
dTm [8]: 5.08 K
dTm [9]: 2.71 K
dTm [10]: 0.32 K
dTm [11]: 0.24 K

Cc1ccc(-n2nc(C(C)(C)C)cc2NC(=O)Nc2cccc(-c3c[nH]c4ncnc(N5CCOCC5)c34)c2)cc1 [Compound 29]
dTm [1]: 4.13 K
dTm [2]: 0.52 K
dTm [3]: -10.70 K
dTm [4]: -10.48 K
dTm [5]: -1.39 K
dTm [6]: -0.44 K
dTm [7]: 0.69 K
dTm [8]: 3.58 K
dTm [9]: 6.41 K
dTm [10]: 0.38 K
dTm [11]: 0.25 K

Cc1ccc(-n2nc(C(C)(C)C)cc2NC(=O)Nc2cccc(-c3c[nH]c4nc(Cl)nc(N5CCOCC5)c34)c2)cc1 [Compound 30]
dTm [1]: 1.21 K
dTm [2]: -1.12 K
dTm [3]: -4.89 K
dTm [4]: -11.52 K
dTm [5]: 3.39 K
dTm [6]: -0.71 K
dTm [7]: 0.59 K
dTm [8]: 0.76 K
dTm [9]: 2.91 K
dTm [10]: -0.59 K
dTm [11]: -1.50 K

CC(=O)N1CCN(c2nc(Cl)nc3[nH]cc(-c4cccc(NC(=O)Nc5cc(C(C)(C)C)nn5-c5ccc(C)cc5)c4)c23)CC1 [Compound 31]
dTm [1]: 0.55 K
dTm [2]: -2.10 K
dTm [3]: -2.02 K
dTm [4]: -9.46 K
dTm [5]: 5.47 K
dTm [6]: -1.71 K
dTm [7]: 0.26 K
dTm [8]: 0.00835 K
dTm [9]: 2.26 K
dTm [10]: -0.67 K
dTm [11]: -1.67 K

CCSc1nc(NC)c2c(-c3cccc(NC(=O)Nc4cc(C(C)(C)C)nn4-c4ccc(C)cc4)c3)c[nH]c2n1 [Compound 32]
dTm [1]: 0.53 K
dTm [2]: -0.46 K
dTm [3]: -5.70 K
dTm [4]: -4.54 K
dTm [5]: 11.55 K
dTm [6]: 0.87 K
dTm [7]: 0.23 K
dTm [8]: -0.13 K
dTm [9]: 1.19 K
dTm [10]: 0.43 K
dTm [11]: -0.57 K

COc1cc(C(=O)N2CCOCC2)c(F)cc1Nc1nc(N(C)C)c2c(Cl)c[nH]c2n1 [Compound 36]
dTm [1]: 3.22 K
dTm [2]: 1.88 K
dTm [3]: 1.23 K
dTm [4]: -1.01 K
dTm [5]: 2.71 K
dTm [6]: -0.68 K
dTm [7]: 2.03 K
dTm [8]: -1.33 K
dTm [9]: 1.11 K
dTm [10]: 1.99 K
dTm [11]: -1.95 K

COc1cc(S(C)(=O)=O)ccc1Nc1nc(N(C)C)c2c(Cl)c[nH]c2n1 [Compound 37]
dTm [1]: -0.19 K
dTm [2]: 1.40 K
dTm [3]: 1.43 K
dTm [4]: -0.93 K
dTm [5]: 0.96 K
dTm [6]: -1.77 K
dTm [7]: 0.51 K
dTm [8]: -0.88 K
dTm [9]: 0.45 K
dTm [10]: 0.36 K
dTm [11]: -1.44 K
